Measurements reported in ChEMBL document CHEMBL3751749, “Identification of new hit scaffolds by [sequence]-guided virtual screening” (Medchemcomm, 2015).
Active and inactive are the calls of the source. No cut-off for these calls is given here.

Experiments:
[1] = target: T1, Cyclin-dependent kinase 2 (Homo sapiens, UniProt P24941); assay: Binding affinity to N-terminal His-tagged human CDK2 expressed in Escherichia coli BL21-AI by STD-NMR analysis
[2] = target: T1, Cyclin-dependent kinase 2; assay: Binding affinity to human CDK2 by isothermal titration calorimetric analysis
[3] = target: T2, Cyclin-dependent kinase 2/cyclin E1 (Homo sapiens) (UniProt P24864+P24941); assay: Inhibition of recombinant full-length human Cdk2/cyclin E assessed as enzyme activity using histone H1 as substrate at 100 uM incubated for 120 mins in presence of 33-P ATP by kinase phosphorylation assay; format: protein-complex assay; set-up: scale not given: the % may be the effect or the level left
[4] = target: T3, CDK2/Cyclin A2 (Homo sapiens) (UniProt P24941+P20248); assay: Inhibition of recombinant full-length human Cdk2/cyclin A assessed as enzyme activity using histone H1 as substrate at 100 uM incubated for 120 mins in presence of 33-P ATP by kinase phosphorylation assay; format: protein-complex assay; set-up: scale not given: the % may be the effect or the level left
[5] = species on record: Homo sapiens; assay: Inhibition of human PKA assessed as enzyme activity using PKA peptide as substrate at 100 uM incubated for 120 mins in presence of 33-P ATP by kinase phosphorylation assay; set-up: scale not given: the % may be the effect or the level left
[6] = target: CDK2/Cyclin A2 (Homo sapiens, UniProt P24941); assay: Inhibition of recombinant full-length human Cdk2/cyclin A using histone H1 as substrate incubated for 120 mins in presence of 33-P ATP by kinase phosphorylation assay; format: protein-complex assay
[7] = target: T3, CDK2/Cyclin A2 (Homo sapiens); assay: Inhibition of recombinant full-length human Cdk2/cyclin A assessed as enzyme activity using histone H1 as substrate at 5 uM incubated for 120 mins in presence of 33-P ATP by kinase phosphorylation assay; format: protein-complex assay; set-up: scale not given: the % may be the effect or the level left
[8] = species on record: Homo sapiens; assay: Inhibition of human PKA assessed as enzyme activity using PKA peptide as substrate at 5 uM incubated for 120 mins in presence of 33-P ATP by kinase phosphorylation assay; set-up: scale not given: the % may be the effect or the level left
[9] = target: T2, Cyclin-dependent kinase 2/cyclin E1 (Homo sapiens); assay: Inhibition of recombinant full-length human Cdk2/cyclin E assessed as enzyme activity using histone H1 as substrate at 5 uM incubated for 120 mins in presence of 33-P ATP by kinase phosphorylation assay; format: protein-complex assay; set-up: scale not given: the % may be the effect or the level left
[10] = target: ALK tyrosine kinase receptor (Homo sapiens) (UniProt Q9UM73); assay: Inhibition of human ALK assessed as enzyme activity using pEY as substrate at 5 uM incubated for 120 mins in presence of 33-P ATP by kinase phosphorylation assay; set-up: scale not given: the % may be the effect or the level left
ALK tyrosine kinase receptor (Homo sapiens), sequence (Q9UM73 19-1620 limits assumed): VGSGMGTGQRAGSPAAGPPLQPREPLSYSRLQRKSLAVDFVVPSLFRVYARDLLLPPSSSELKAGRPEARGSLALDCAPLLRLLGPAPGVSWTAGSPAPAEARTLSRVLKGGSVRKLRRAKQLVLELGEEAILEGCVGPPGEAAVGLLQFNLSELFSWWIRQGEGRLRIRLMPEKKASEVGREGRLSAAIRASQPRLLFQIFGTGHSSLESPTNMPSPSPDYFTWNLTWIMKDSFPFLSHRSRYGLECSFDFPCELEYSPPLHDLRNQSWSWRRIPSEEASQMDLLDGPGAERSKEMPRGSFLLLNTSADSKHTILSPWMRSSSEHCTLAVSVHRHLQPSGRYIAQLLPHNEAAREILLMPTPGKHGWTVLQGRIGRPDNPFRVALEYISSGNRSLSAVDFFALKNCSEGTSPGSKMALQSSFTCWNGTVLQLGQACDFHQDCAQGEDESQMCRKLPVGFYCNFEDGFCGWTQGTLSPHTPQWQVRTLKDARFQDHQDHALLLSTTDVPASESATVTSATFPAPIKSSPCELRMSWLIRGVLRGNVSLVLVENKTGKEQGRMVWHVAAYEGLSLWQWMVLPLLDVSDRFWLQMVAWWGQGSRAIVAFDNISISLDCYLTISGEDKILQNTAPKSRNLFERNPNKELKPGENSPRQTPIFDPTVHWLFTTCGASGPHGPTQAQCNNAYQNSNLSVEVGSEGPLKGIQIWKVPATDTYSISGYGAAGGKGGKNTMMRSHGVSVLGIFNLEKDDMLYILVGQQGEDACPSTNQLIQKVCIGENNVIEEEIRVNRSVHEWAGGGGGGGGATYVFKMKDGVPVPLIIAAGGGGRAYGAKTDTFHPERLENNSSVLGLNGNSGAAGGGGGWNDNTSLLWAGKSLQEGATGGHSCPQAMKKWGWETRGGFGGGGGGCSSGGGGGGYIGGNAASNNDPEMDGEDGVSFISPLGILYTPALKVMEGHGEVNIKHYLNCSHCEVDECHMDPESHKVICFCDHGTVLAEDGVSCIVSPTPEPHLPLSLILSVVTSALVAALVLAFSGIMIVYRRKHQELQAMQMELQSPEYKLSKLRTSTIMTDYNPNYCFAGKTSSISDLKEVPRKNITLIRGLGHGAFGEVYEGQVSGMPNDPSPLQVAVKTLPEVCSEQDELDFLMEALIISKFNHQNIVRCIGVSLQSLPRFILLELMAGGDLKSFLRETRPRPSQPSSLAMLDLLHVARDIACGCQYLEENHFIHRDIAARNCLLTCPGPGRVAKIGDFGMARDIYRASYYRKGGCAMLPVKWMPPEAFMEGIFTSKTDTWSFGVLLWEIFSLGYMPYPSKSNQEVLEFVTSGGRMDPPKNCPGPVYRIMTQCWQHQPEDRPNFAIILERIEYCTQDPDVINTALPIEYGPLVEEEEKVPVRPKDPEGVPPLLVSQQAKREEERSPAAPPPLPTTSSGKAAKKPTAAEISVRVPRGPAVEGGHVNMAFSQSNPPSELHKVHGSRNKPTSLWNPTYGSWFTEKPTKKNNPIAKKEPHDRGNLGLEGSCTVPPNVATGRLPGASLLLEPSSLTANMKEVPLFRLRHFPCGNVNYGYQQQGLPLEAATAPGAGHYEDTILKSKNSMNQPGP

Row | SMILES | Activity [1] | Kd [2] [µM] | other results
1 | N=C(N)NCCNS(=O)(=O)c1cccc2cnccc12 | Active | 286 | 
2 | Cc1ccc(Cn2nccc2-n2c(-c3cc(C)n(C)n3)n[nH]c2=S)cc1 | Active |  | Activity [3]: 96%; Activity [4]: 69%; Activity [5]: 99%; IC50 [6]: 1000 µM
3 | Nc1ncnc2c1ncn2[C@@H]1O[C@H](CO)[C@@H](O)[C@H]1O [ADENOSINE] |  | 184 | 
4 | CC(C)=CCNc1ncnc2nc[nH]c12 |  | 35 | 
5 | Cc1nc2[nH]n(-c3ccccc3)c(=O)c2c2c1c(=O)oc1ccc(Br)cc12 |  |  | Activity [7]: 35%; Activity [8]: 115%; Activity [9]: 95%; IC50 [6]: 2.6 µM; Activity [10]: 87%
6 | Cc1ccc(Cn2cc(-n3c(-c4ccc(Cn5cc(Cl)cn5)cc4)n[nH]c3=S)cn2)cc1 | inactive |  | 
7 | CNc1ncnc2ccc([N+](=O)[O-])cc12 | Active | 208 | 
8 | Cc1ccc(Cn2cc(-n3c(-c4ccc(Cn5nc(C)cc5C)o4)n[nH]c3=S)cn2)cc1 | inactive |  | 
9 | Cc1ccc(Cn2cc(-n3c(-c4ccc(Cn5nc(C)c(Cl)c5C)o4)n[nH]c3=S)cn2)cc1 | inactive |  | 
10 | CC(C)=CCNc1ncnc2[nH]cnc12 | Active |  | 
11 | Cc1ccc(Cn2cc(-n3c(-c4ccc(Cn5cccn5)cc4)n[nH]c3=S)cn2)cc1 | inactive |  | 
12 | c1ccc(CNc2ncnc3nc[nH]c23)cc1 [6-BENZYLAMINOPURINE] |  | 62 | 
13 | c1ccc(CNc2ncnc3[nH]cnc23)cc1 | Active |  | 
14 | O=S(=O)(c1cccc2cnccc12)N1CCCNCC1 | Active |  | 
